Read-outs that look alike come from different tables or passages of the source.
What was measured:
[1] = test system: Stage 5 gametocytes from P. falciparum NF54; assay: Late-stage (stage V) gametocyte survival assay, MitoTracker; assay type: cell-based, Plasmodium falciparum; conditions: for EC50: Plasmodium falciparum, P. falciparum NF54, 72 h, read-out: Stage 5 Gametocyte EC50; for EC50 fold shift compared to asexual stage: Stage 5 Gametocyte EC50: gametocyte EC50 / 3D7 EC50
Method: The second assay was a late-stage (stage V) gametocyte survival assay, which predicts transmission-blocking activity. […] Positive and negative control compounds included puromycin (0.61±0.11 μM) and atovaquone (> 12.50 μM), respectively.
To test sexual-stage activity, compounds were tested against late-stage gametocytes using a MitoTracker fluorescent-based assay. Specifically, synchronized stage V gametocytes were incubated with compound for 72 h. MitoTracker Red CMXRos (Life Technologies) was added to each well (final concentration: 500 nM) together with saponin to lyse the RBCs. Each plate was then imaged with an Operetta High Content Imaging System (Perkin Elmer) for fluorescence (590–640 nm). Varying levels of compound concentration were used (1.25 μM or 12.5 μM) due to the stock concentration supplied.
The gametocytocidal activity was measured using high-content image analysis software (Harmony, Perkin Elmer). The readout was based on number of metabolically active gametocytes per well.

[2] = test system: 3D7; assay: Cross-resistance EC50 assay, 3D7 parent / sensitive strain; assay type: cell-based; conditions: Plasmodium falciparum
Description: Multidrug resistance alleles, including mutations in P. falciparum chloroquine resistance transporter (pfcrt) and P. falciparum multi-drug resistance transporter 1 (pfmdr1) are very common in field isolates. Therefore, we sought to assess the degree to which pre-existing resistance alleles would contribute to a loss of potency for this diverse collection of small molecule compounds. Fifteen clones derived from three main parent lines were chosen to maximize diversity in mutated pathways and genetic backgrounds, thus representing the variety of resistance seen in the field: 3D7 (ref. [23]), W2 (ref. [24]) or Dd2 (ref. [25]). The 3D7 line originates from the clone of a Netherlands clinical isolate strain[23][26] and is generally considered to be drug sensitive, though it does convey resistance to sulfadoxine. Conversely, W2 (ref. [24], [27]) and Dd2 (ref. [25]) are multi-drug-resistant lines originating from the Indochina III/CDC isolate, which contain point mutations in pfcrt as well as amplifications in pfmdr1 and GTP cyclohydrolase.
To evaluate potential overlapping activity against known antimalarial drug targets, we performed dose-response studies with each compound against our assembled set of drug-resistant lines and their corresponding parents, in an asexual blood stage proliferation assay (Table 1). Comparisons were made to the drug-sensitive strain 3D7 when a parent was unavailable (TM90C2A, W2 and Dd2). As laboratories conducted EC50 assays with different strains and protocols, all comparisons were made between assays from the same laboratory and under the same assay conditions. Compounds displaying >5-fold EC50 shifts relative to the parent or sensitive strain were flagged as having potentially non-novel targets. Average fold shifts per strain ranged from 0.82 to 2.34, with a median of 1.23 indicating there was not common resistance to any one resistant clone. No resistance patterns were observed when classifying the compounds based on chemical structure, but this was not surprising given the diversity of compounds chosen. On the other hand, given that these confirmed compounds were derived from larger unconfirmed hit lists to which some filtration criteria may have been applied (for example, elimination of obvious dihydrofolate reductase inhibitors[32]), some[10][11][12][13] pre-existing bias may exist in the set.
(§1) The 48-h assay was carried out in a 96-well format following standard methods using the ^3H-hypoxanthine incorporation assay. The raw EC50 values corresponding to this assay can be found in Supplementary Data 3. Briefly, this assay relies on the parasite incorporation of labelled hypoxanthine that is proportional to P. falciparum growth. A culture of parasitized RBCs (0.5% parasitemia with a percentage of ring stage higher than 70% of total parasitemia, 2.0% haematocrit) in RPMI-1640, […] and 5 μM hypoxanthine was exposed to drug serial dilutions. Plates were incubated for 24 h at 37 °C, 5% CO2, 5% O2 and 90% N2. After 24 h of incubation, ^3H-hypoxanthine was added and plates were incubated for an additional 24-h period. After that, parasites were harvested on a glass fibre filter using a TOMTEC Cell Harvester 96. Filters were dried and melt-on scintillator sheets were used to determine the incorporation of ^3H-hypoxanthine. Radioactivity was measured using a microbeta counter. Data were normalized using the incorporation of the positive (parasitized RBCs without drug) and negative (same culture with artesunate at 2 μM) controls. All assays were conducted in triplicate using three independently grown cultures, and EC50 values were determined using the XLfit add-in module for Excel (version 2.3.1) from Grafit (version 5.3.1.3), where parameter h is the assay hill slope, x is the compound concentration and y is the inhibition of growth effect. The XLfit equation is: […]
Alternatively, a SYBR Green-based proliferation approach was used for the 72-h assay, as previously described. […]

[3] = test system: P. falciparum strain 3D7; assay: Asexual blood stage 3H-hypoxanthine incorporation assay, 3D7; assay type: cell-based, Plasmodium falciparum; conditions: Plasmodium falciparum, 3D7, asexual stage, P. falciparum 3D7; read-out: 3D7 EC50
Method: as §1

[4] = SYBR green 72 hour assay, asynchronized parasites, 96-well or 1536-well format, 3D7 parent, read-out: 3D7 (PARENT) EC50 (µM) Average EC50
[5] = SYBR green 72 hour assay, synchronized parasites, 384-well format, strain 3D7 (parent), read-out: 3D7 (PARENT) Average EC50
[6] = hypoxanthine 48-hour assay, synchronized parasites, 96-well format, strain 3D7 (parent), read-out: 3D7 (PARENT) Average EC50
[7] = hypoxanthine 48-hour assay, synchronized parasites, 96-well format, strain 3D7-C9-WT (parent of PfATP4 Mut3), read-out: 3D7-C9-WT (PARENT) Average EC50

Row | Compound | EC50 [1] | EC50 fold shift compared to asexual stage: Stage 5 Gametocyte EC50 [1] | EC50 [2, 4] | EC50 [2, 5] | EC50 [2, 6] | EC50 [2, 7] | EC50 [3] | EC50 ([2]; SYBR green 72 hour assay, synchronized parasites, 384-well format, 3D7 parent, read-out: 3D7 (PARENT) Average EC50)
1 | OC(CNC1CCCCC1)Cn1c2ccc(I)cc2c2cc(I)ccc21 (stereo not shown) [MMV665882] | 0.323 µM | 4.44 | 0.023 µM | 0.035 µM | 0.075 µM | 0.158 µM | 0.0727 µM | –
2 | COCCNCC(O)Cn1c2ccc(Cl)cc2c2cc(Cl)ccc21 (stereo not shown) [MMV019017] | > 1.25 µM | > 2.6 | 0.537 µM | 0.763 µM | 0.62 µM | – | 0.48 µM | –
3 | COc1cc(-c2nc(-c3ccccc3)c(-c3ccccc3)[nH]2)cc(OC)c1O [MMV020750] | > 1.25 µM | > 3.6 | 0.575 µM | 0.597 µM | 0.342 µM | 0.656 µM | 0.342 µM | –
4 | CCCN(CCC)CC(O)COc1ccccc1C(=O)Nc1ccccc1 (stereo not shown) [MMV006455] | > 1.25 µM | > 2.3 | 0.148 µM | 2.43 µM | 0.529 µM | – | 0.53 µM | –
5 | O=C(NCC(CCCN1CCC(c2c[nH]c3ccccc23)CC1)c1ccccc1)Nc1ccc(Cl)c(Cl)c1 (stereo not shown) [MMV029272] | 2.23 µM | 16.40 | 2.87 µM | 0.17 µM | 0.139 µM | 0.115 µM | 0.136 µM | –
6 | CC(NCc1ccccc1)c1cc(Cl)ccc1O (stereo not shown) [MMV665789] | > 1.25 µM | > 1 | 0.17 µM | 1 µM | 1.25 µM | 1.25 µM | 1.25 µM | –
7 | FC(F)(F)c1cccc(Nc2nc3ccccc3nc2Nc2cccc(C(F)(F)F)c2)c1 [MMV665794] | 0.836 µM | – | 0.318 µM | 0.164 µM | 0.103 µM | – | 0.1 µM | –
8 | O=C(Nc1ccccc1O)c1ccc(Oc2cccc(C(=O)Nc3ccccc3O)c2)cc1 [MMV665888] | 2.98 µM | 2.46 | 0.295 µM | 0.614 µM | 1.16 µM | – | 1.21 µM | –
9 | Nc1ccc(-c2nc3cc(Cc4ccc5[nH]c(-c6ccc(N)cc6)nc5c4)ccc3[nH]2)cc1 [MMV665943] | 0.407 µM | 1.29 | 0.034 µM | 0.369 µM | 0.316 µM | 0.198 µM | 0.316 µM | –
10 | COc1cc(C(=O)ON=C(N)Cc2cccc3ccccc23)cc(OC)c1OC [MMV666687] | 4.34 µM | – | 1 µM | 0.89 µM | 0.351 µM | 0.294 µM | 0.348 µM | –
11 | CCCOCc1cc(CN2CCN(c3cccc(Cl)c3)CC2)c(O)c2ncccc12 [MMV000787] | 5.67 µM | – | 0.645 µM | 0.631 µM | 1.46 µM | 0.935 µM | 0.942 µM | –
12 | Cc1ccc(Cn2c(N3CCC(C(=O)NCc4cccs4)CC3)nc3ccccc32)cc1 [MMV007564] | 2.21 µM | 3.81 | 0.867 µM | 0.681 µM | 0.578 µM | 0.477 µM | 0.58 µM | –
13 | Nc1ccc(-c2nc3cc(Oc4ccc(Oc5ccc6[nH]c(-c7ccc(N)cc7)nc6c5)cc4)ccc3[nH]2)cc1 [MMV011895] | > 12.5 µM | > 78 | 0.24 µM | 0.169 µM | 0.158 µM | – | 0.16 µM | –
14 | c1cncc(-c2cc(N3CCC(CN4CCOCC4)CC3)nc(-c3ccncc3)n2)c1 [MMV668399] | > 12.5 µM | – | 0.322 µM | 0.089 µM | 0.081 µM | 0.072 µM | 0.083 µM | –
15 | CCC(C)NCC(O)(c1ccc(Cl)cc1)c1ccc(Cl)cc1 (stereo not shown) [MMV665928] | > 1.25 µM | > 2.5 | 0.028 µM | 0.972 µM | 0.494 µM | 1.16 µM | 0.494 µM | –
16 | Cc1ccc(Oc2ncccc2C(=O)Cc2cccc3cccnc23)c(C)c1 [MMV020746] | 3.79 µM | 49.87 | 0.993 µM | 0.096 µM | 0.074 µM | 0.093 µM | 0.076 µM | –
17 | O=C(Nc1ccsc1C(=O)NC1CCCCC1)c1ccc(F)cc1 [MMV665939] | > 1.25 µM | – | 1.22 µM | 0.726 µM | 1.04 µM | 2.1 µM | 1.04 µM | –
18 | COc1cc(-c2nc(-c3ccccc3)c(-c3ccccc3)[nH]2)ccc1OCCN(C)C [MMV027496] | > 12.5 µM | > 112 | 0.241 µM | 0.118 µM | 0.112 µM | 0.084 µM | 0.111 µM | –
19 | CCOc1cc2c(cc1OCC)C(c1cc(Cl)ccc1O)NCC2 (stereo not shown) [MMV000478] | > 1.25 µM | > 1.25 | 0.613 µM | 1.85 µM | 1.07 µM | 1.28 µM | 1.07 µM | –
20 | CN(C)Cc1ccc(-c2cc3c(-c4ccc(CN(C)C)cc4)ccnc3[nH]2)cc1.O=C(O)C(F)(F)F [MMV022224] | 2.33 µM | – | 0.224 µM | 0.242 µM | 0.343 µM | 0.356 µM | 0.388 µM | –
21 | COc1ccc(-c2nc(NC(=O)Cc3ccc4c(c3)OCCO4)sc2C)cc1 [MMV019719] | 5.52 µM | 33.66 | 0.236 µM | 0.2 µM | 0.165 µM | 0.132 µM | 0.164 µM | –
22 | COC(=O)c1ccc(C2C3=C(O)CC(c4ccc(F)cc4)CC3=Nc3ccccc3N2C(=O)c2ccccc2)cc1 (stereo not shown) [MMV011438] | 0.971 µM | 2.25 | 0.187 µM | 0.229 µM | 0.428 µM | 0.513 µM | 0.431 µM | –
23 | CN(C)CCCN(C)C(=O)C1Cc2cc(-c3ccccc3)ccc2N1S(=O)(=O)c1ccccc1 (stereo not shown) [MMV028895] | – | – | 0.625 µM | 0.049 µM | 0.081 µM | 0.052 µM | – | –
24 | COc1ccc2c3c([nH]c2c1)[C@H](CO)N(C(C)=O)CC31CCN(C(=O)Nc2ccccc2F)CC1 [MMV673482] | – | – | 0.039 µM | – | 0.232 µM | 0.234 µM | – | 0.127 µM

Reference: article PMC4912613, “A broad analysis of resistance development in the malaria parasite” (Nature Communications, 2016)
